# Reference: PubChem BioAssay (NCI)
#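 Five concentrations, 48 hours, 96-well plates. The concentration for 50% growth inhibition is given as GI50. Definition used: TGI = concentration required for complete inhibition of growth.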
# Columns and labels:
# Experiment in all cases: growth of human tumour cells (NCI), 48 h
# [1] = system: NCI-H460 lung
# [2] = system: A549 NSCLC
# [3] = system: HOP-92 NSCLC
# [4] = system: HCT-116 colon
# [5] = system: LOX IMVI melanoma
# [6] = system: UACC-62 melanoma
# [7] = system: ACHN renal
# [8] = system: DU-145 prostate
# [9] = system: HCT-15 colon
# [10] = system: TK-10 renal
# [11] = system: NCI-H226 lung
# [12] = system: K-562 leukemia
# [13] = system: HT29 colon
# [14] = system: OVCAR-5 ovarian
# [15] = system: MALME-3M melanoma
# [16] = system: RPMI-8226 leukemia
# [17] = system: A498 renal
# [18] = system: KM12 colon
# [19] = system: SF-268 CNS
# [20] = system: T-47D breast
# [21] = system: UO-31 renal
# [22] = system: SF-295 CNS
# [23] = system: OVCAR-4 ovarian
# [24] = system: MDA-MB-468 breast
# [25] = system: SK-MEL-28 melanoma
# [26] = system: U251 CNS
# [27] = system: OVCAR-3 ovarian
# [28] = system: PC-3 prostate
# [29] = system: EKVX NSCLC
# [30] = system: HCC-2998 colon
# [31] = system: MOLT-4 leukemia
# [32] = system: SW-620 colon
# [33] = system: HS 578T breast
# [34] = system: SNB-19 CNS
# [35] = system: SK-MEL-2 melanoma
# [36] = system: SK-OV-3 ovarian
# [37] = system: SK-MEL-5 melanoma
# [38] = system: COLO 205 colon
# [39] = system: OVCAR-8 ovarian
# [40] = system: 786-0 renal
# [41] = system: IGROV1 ovarian
# [42] = system: NCI-H23 lung
# [43] = system: HOP-62 NSCLC
# [44] = system: BT-549 breast
# [45] = system: NCI-H522 lung
# [46] = system: M14 melanoma
# [47] = system: RXF 393 renal
# [48] = system: HL-60(TB) leukemia
# [49] = system: UACC-257 melanoma
# [50] = system: SN12C renal
# [51] = system: SR leukemia
# [52] = system: MDA-MB-435
# [53] = system: SF-539 CNS
# [54] = system: CAKI-1 renal
# [55] = system: MCF7 breast
# [56] = system: CCRF-CEM leukemia
# [57] = system: MDA-MB-231 breast
compound,measurement,setting,value
Cn1cc(-c2cc3nc(-c4cn(C)c5ncccc45)cc(N)n3n2)c2cc(F)ccc21,GI50,[1],5.43 µM
same,TGI,[1],> 100 µM
same,GI50,[2],7.71 µM
same,TGI,[2],> 100 µM
same,GI50,[3],11.2 µM
same,TGI,[3],46.7 µM
same,GI50,[4],> 100 µM
same,TGI,[4],> 100 µM
same,GI50,[5],2.43 µM
same,TGI,[5],5.78 µM
same,GI50,[6],20.4 µM
same,TGI,[6],> 100 µM
same,GI50,[7],4.21 µM
same,TGI,[7],20.6 µM
same,GI50,[8],8.97 µM
same,TGI,[8],> 100 µM
same,GI50,[9],> 100 µM
same,TGI,[9],> 100 µM
same,GI50,[10],10.3 µM
same,TGI,[10],31.3 µM
same,GI50,[11],4.04 µM
same,TGI,[11],20.2 µM
same,GI50,[12],10.5 µM
same,TGI,[12],> 100 µM
same,GI50,[13],4.14 µM
same,TGI,[13],28.4 µM
same,GI50,[14],25.2 µM
same,TGI,[14],> 100 µM
same,GI50,[15],10.6 µM
same,TGI,[15],37.7 µM
same,GI50,[16],13.6 µM
same,TGI,[16],> 100 µM
same,GI50,[17],50 µM
same,TGI,[17],> 100 µM
same,GI50,[18],> 100 µM
same,TGI,[18],> 100 µM
same,GI50,[19],15.6 µM
same,TGI,[19],> 100 µM
same,GI50,[20],6.15 µM
same,TGI,[20],67.1 µM
same,GI50,[21],31.9 µM
same,TGI,[21],> 100 µM
same,GI50,[22],3.22 µM
same,TGI,[22],14 µM
same,GI50,[23],4.12 µM
same,TGI,[23],20.9 µM
same,GI50,[24],3.81 µM
same,TGI,[24],22.1 µM
same,GI50,[25],> 100 µM
same,TGI,[25],> 100 µM
same,GI50,[26],4.12 µM
same,TGI,[26],15.4 µM
same,GI50,[27],14.1 µM
same,TGI,[27],57.8 µM
same,GI50,[28],11 µM
same,TGI,[28],> 100 µM
same,GI50,[29],19 µM
same,TGI,[29],> 100 µM
same,GI50,[30],61.2 µM
same,TGI,[30],> 100 µM
same,GI50,[31],20 µM
same,TGI,[31],> 100 µM
same,GI50,[32],52.7 µM
same,TGI,[32],> 100 µM
same,GI50,[33],11.3 µM
same,TGI,[33],69.6 µM
same,GI50,[34],5.79 µM
same,TGI,[34],24.3 µM
same,GI50,[35],10.4 µM
same,TGI,[35],23.3 µM
same,GI50,[36],14.4 µM
same,TGI,[36],34.5 µM
same,GI50,[37],46.2 µM
same,TGI,[37],> 100 µM
same,GI50,[38],6.78 µM
same,TGI,[38],> 100 µM
same,GI50,[39],4.6 µM
same,TGI,[39],40.5 µM
same,GI50,[40],4.82 µM
same,TGI,[40],19.8 µM
same,GI50,[41],4.45 µM
same,TGI,[41],53.1 µM
same,GI50,[42],13.7 µM
same,TGI,[42],58.2 µM
same,GI50,[43],4.05 µM
same,TGI,[43],16.6 µM
same,GI50,[44],13.3 µM
same,TGI,[44],48 µM
same,GI50,[45],10.8 µM
same,TGI,[45],30.6 µM
same,GI50,[46],57 µM
same,TGI,[46],> 100 µM
same,GI50,[47],2.61 µM
same,TGI,[47],9.35 µM
same,GI50,[48],> 100 µM
same,TGI,[48],> 100 µM
same,GI50,[49],65.6 µM
same,TGI,[49],> 100 µM
same,GI50,[50],9.61 µM
same,TGI,[50],> 100 µM
same,GI50,[51],2.48 µM
same,TGI,[51],> 100 µM
same,GI50,[52],> 100 µM
same,TGI,[52],> 100 µM
same,GI50,[53],10.6 µM
same,TGI,[53],28.8 µM
same,GI50,[54],13 µM
same,TGI,[54],> 100 µM
same,GI50,[55],13.4 µM
same,TGI,[55],> 100 µM
same,GI50,[56],7.83 µM
same,TGI,[56],> 100 µM
same,GI50,[57],9.62 µM
same,TGI,[57],26.8 µM
